Data from PubChem BioAssay (NCI).
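Where inhibition never reached the appropriate level, the endpoint shown equals the highest concentration tested. Otherwise, values were interpolated linearly from a five-concentration, 48-hour dose response in 96-well plates. TGI: total growth inhibition.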

Tests used:
Test in all cases: NCI tumour cell line growth inhibition, 48 h
HCT-116 colon = test system: HCT-116 colon
HCT-15 colon = test system: HCT-15 colon
HL-60(TB) leukemia = test system: HL-60(TB) leukemia
HOP-62 NSCLC = test system: HOP-62 NSCLC
HS 578T breast = test system: HS 578T breast
K-562 leukemia = test system: K-562 leukemia
M14 melanoma = test system: M14 melanoma
MDA-MB-231 breast = test system: MDA-MB-231 breast
NCI-H23 lung = test system: NCI-H23 lung
OVCAR-3 ovarian = test system: OVCAR-3 ovarian
PC-3 prostate = test system: PC-3 prostate
TK-10 renal = test system: TK-10 renal

Row | Compound | TGI (HCT-116 colon) [µM] | TGI (HCT-15 colon) [µM] | TGI (HL-60(TB) leukemia) [µM] | TGI (HOP-62 NSCLC) [µM] | TGI (HS 578T breast) [µM] | TGI (K-562 leukemia) [µM] | TGI (M14 melanoma) [µM] | TGI (MDA-MB-231 breast) [µM] | TGI (NCI-H23 lung) [µM] | TGI (OVCAR-3 ovarian) [µM] | TGI (PC-3 prostate) [µM] | TGI (TK-10 renal) [µM]
1 | CCOC(=O)c1c(SCCN2CCCC2)n(-c2ccccc2)c(=S)n(-c2ccccc2)c1=O | 8.39 | 5.54 | 3.52 | 36.6 | > 100 | 5.63 | 3.25 | 4.4 | 27.4 | 3.35 | 3.14 | 3.06
2 | CCOC(=O)C1C(=O)CC(O)(c2ccccc2)C(C(=O)OCC)C1c1ccc(OC)cc1 (configuration not stated) | > 47 | > 100 | > 47.8 | > 100 | 53.7 | > 83.4 | 82.9 | > 100 | > 100 | 42.8 | > 96.4 | > 100
3 | O=C1NC(=S)NC(=O)C1C(c1ccccc1[N+](=O)[O-])C1C(=O)NC(=S)NC1=O | > 100 | > 100 | > 100 | > 100 | > 100 | > 100 | > 100 | > 100 | > 100 | > 100 | > 100 | > 100
4 | Cc1cc(O)cc(O)c1N=Nc1ccc([N+](=O)[O-])cc1 | 15.4 | 28.9 | > 100 | > 100 | 73.7 | > 100 | > 100 | 47.4 | 52 | > 100 | > 100 | > 100
5 | O=c1c2cc(I)ccc2[nH]c(=S)n1Cc1ccccc1 | > 100 | > 100 | 28.5 | 63 | 58.9 | > 100 | > 100 | 66.3 | > 100 | > 100 | > 100 | 42
6 | Brc1ccc2c3c1[C@@H]1O[C@@H]1c1cccc(c1-3)[C@@H]1O[C@H]21 | 45.7 | 49.8 | 66.5 | 43.1 | 80.8 | > 100 | 35.5 | 65.8 | 33.7 | 52.6 | > 71.7 | > 100
7 | CCOC(=O)c1cnc2[nH]ccn2c1=O | > 10 | > 10 | > 10 | > 10 | > 10 | > 10 | > 10 | > 10 | > 10 | > 10 | > 10 | > 10
8 | NCCCC(N)C(=O)O (configuration not stated) | > 100 | > 100 | > 100 | > 100 | > 100 | > 100 | > 100 | > 100 | > 100 | > 100 | > 100 | > 100
9 | O=C1C(C=NCCc2c[nH]c3ccccc23)C(C(F)(F)F)=NN1c1nc2ccccc2s1 (configuration not stated) | > 100 | > 100 | 47.8 | 46.9 | > 100 | > 100 | > 100 | > 100 | > 100 | 50.1 | 97.8 | 62.1
10 | CN(O)C(=O)Cc1ccc(OCc2cccc(Cl)c2)cc1 | > 100 | > 100 | > 100 | > 100 | > 100 | > 100 | > 100 | > 100 | > 100 | > 100 | > 100 | > 100
11 | CCOC(=O)C(=O)N1C(C)=C(C(=O)OCC)CC(C(=O)OCC)=C1C | > 100 | > 100 | > 100 | > 100 | > 100 | > 100 | > 100 | > 100 | > 100 | > 100 | > 100 | > 100
12 | CC(C)(CO)N1C(=O)c2ccccc2C1(O)c1ccc(Cl)cc1 (configuration not stated) | > 100 | > 100 | > 100 | > 100 | > 100 | > 100 | > 100 | > 100 | > 100 | > 100 | > 100 | > 100
13 | O=C1N[C@@H]2c3c(csc3Br)C(=O)[C@@H]2O1 | > 100 | > 100 | 64.9 | > 100 | > 100 | 53.4 | > 100 | > 100 | > 100 | 47.8 | > 100 | 80.3
14 | O=C1/C(=C/c2ccc([N+](=O)[O-])cc2)CNC/C1=C\c1ccc([N+](=O)[O-])cc1 | 1.97 | 3.06 | 10 | 15.9 | > 64.9 | 1.21 | 28.7 | 20.2 | 9.77 | 9.61 | 21.7 | > 95.8
15 | CN1CN(c2ccccc2)C2(CCN(CCCC3(c4cccs4)OCCO3)CC2)C1=O | > 100 | > 100 | > 100 | > 100 | > 100 | > 100 | > 100 | > 100 | > 100 | > 100 | > 100 | > 100
16 | CCOP(=O)(OCC)/C(F)=C/c1ccccc1 | > 100 | > 100 | > 100 | > 100 | > 100 | > 100 | > 100 | > 100 | > 100 | > 100 | > 100 | > 100
17 | Cc1ccc(C2=Nc3c(c(C)nn3-c3ccccc3)N=C(C(=O)O)C2)cc1 | > 10 | > 10 | > 10 | > 10 | > 10 | > 10 | > 10 | > 10 | > 10 | > 10 | > 10 | > 10
18 | O=C1CC(c2ccc([N+](=O)[O-])cc2)C2(C(=O)NC(=S)NC2=O)C(c2ccc([N+](=O)[O-])cc2)C1 (configuration not stated) | 32.4 | 58 | > 100 | 56 | 88.2 | > 100 | 45.7 | 37.3 | 64.1 | 76.1 | > 100 | 46.7

Row | Compound | TGI (HCT-116 colon) [µM] | TGI (HCT-15 colon) [µM] | TGI (HL-60(TB) leukemia) [µM] | TGI (HOP-62 NSCLC) [µM] | TGI (HS 578T breast) [µM] | TGI (K-562 leukemia) [µM] | TGI (M14 melanoma) [µM] | TGI (MDA-MB-231 breast) [µM] | TGI (NCI-H23 lung) [µM] | TGI (OVCAR-3 ovarian) [µM] | TGI (PC-3 prostate) [µM] | TGI (TK-10 renal) [µM]
19 | CC(C)c1c(P(=O)(c2ccccc2)c2ccccc2)n(C)c2ccccc12 | > 100 | > 100 | 96.9 | > 100 | > 100 | > 100 | > 100 | > 100 | > 100 | > 100 | > 100 | > 100
20 | C=CC/C(C(=O)OC)=C(/C(=O)OC)N(CCC)CCC | > 100 | > 100 | 64.4 | > 100 | > 100 | > 100 | > 100 | > 100 | > 100 | > 100 | > 100 | > 100
21 | Cc1ccc(C(=O)Nc2ccc(CP(=O)(O)O)cc2)cc1NC(=O)c1cccc(NC(=O)Nc2cccc(C(=O)Nc3cc(C(=O)Nc4ccc(CP(=O)(O)O)cc4)ccc3C)c2)c1 | > 100 | > 100 | > 100 | > 100 | > 100 | > 100 | > 100 | > 100 | > 100 | > 100 | > 100 | > 100
22 | COC(c1ccc(C(C)(C)C)cc1)(c1ccc(C(C)(C)C)cc1)c1cc(C(O)(c2cc(C(OC)(c3ccc(C(C)(C)C)cc3)c3ccc(C(C)(C)C)cc3)c(C)cc2C)c2cc(C(OC)(c3ccc(C(C)(C)C)cc3)c3ccc(C(C)(C)C)cc3)c(C)cc2C)c(C)cc1C | > 100 | > 100 | > 100 | > 100 | > 100 | > 100 | > 100 | > 100 | > 100 | > 100 | > 100 | > 100
23 | N#Cc1c(OCCF)c2ccccc2n2c1nc1ccccc12 | > 100 | > 100 | > 100 | > 100 | > 100 | > 100 | > 100 | > 100 | > 100 | > 100 | > 100 | > 100
24 | CC1=CC=CC(C)(C)CC1(O[Si](C)(C)C)C(F)(F)F (configuration not stated) | > 100 | > 100 | > 100 | > 100 | > 100 | > 100 | > 100 | > 100 | > 100 | > 100 | > 100 | > 100
25 | O=[N+]([O-])C(=C(Sc1ccccc1)Sc1ccccc1)C(Cl)=C(Cl)Cl | 0.125 | 1.02 | 0.813 | 4.09 | 17.6 | 0.701 | 1.17 | 0.408 | 2.91 | 1.31 | 5.78 | 0.326
26 | CC(=O)OCC1OC(n2c(=S)[nH]c(-c3ccccc3)c(C#N)c2=O)C(OC(C)=O)C(OC(C)=O)C1OC(C)=O (configuration not stated) | > 100 | > 100 | > 100 | > 100 | > 100 | > 100 | > 100 | > 100 | > 100 | > 100 | > 100 | > 100
27 | O=C(O)CNC(=O)c1ccc([As](=O)(O)O)cc1 | > 100 | > 100 | > 100 | > 100 | > 100 | > 100 | > 100 | > 100 | > 100 | > 100 | > 100 | > 100
28 | Cc1nc2ccc([N+](=O)[O-])cc2c(=O)n1C(=S)Nc1cccc(Cl)c1 | 36.9 | 31 | 50.6 | 44.6 | 72.4 | 98.5 | 53.6 | 37.1 | 38.1 | 58.1 | 54.1 | 67.5
29 | N#CC(C#N)=C1CCCS(=O)(=O)c2ccccc21 | > 100 | > 100 | > 100 | > 100 | > 100 | > 100 | > 100 | > 100 | > 100 | > 100 | > 100 | > 100
30 | CCN(CC)CCCn1c(=O)c2cccnc2n2c3c(=O)n(C)c(=O)n(C)c3nc12 | > 100 | > 100 | > 100 | > 100 | > 100 | > 100 | > 100 | > 100 | > 100 | > 100 | > 100 | > 100
31 | COC(=O)CCCC(=O)C(=Nc1c(Cl)cccc1Cl)NNc1ccc(Cl)cc1 | > 100 | > 100 | > 100 | > 100 | > 100 | > 100 | > 100 | > 100 | > 100 | > 100 | > 100 | > 100
32 | C/C(=N/NC(=S)Nc1cccc(C)c1)c1ccccn1 | 3.11 | 2.24 | < 0.158 | 4.98 | 41.1 | 1.64 | 2.46 | 2.45 | 9.92 | 0.118 | 7.68 | 4.98
33 | O=C(O)c1ccc(NS(=O)(=O)Cc2ccccc2)cc1 | > 100 | > 100 | > 100 | > 100 | > 100 | > 100 | > 100 | > 100 | > 100 | > 100 | > 100 | > 100
34 | Nc1ncnc2c1ncn2C(=O)NC12CC3CC(CC(C3)C1)C2 | > 100 | > 100 | > 100 | > 100 | > 100 | > 100 | > 100 | > 100 | > 100 | > 100 | > 100 | > 100
35 | CO/N=C1/c2sccc2[C@H](NC(=O)CNC(=O)OC(C)(C)C)[C@@H]1O | > 100 | > 100 | > 100 | > 100 | > 100 | > 100 | > 100 | > 100 | > 100 | > 100 | > 100 | > 100
36 | COc1ccc2c(c1)C(=O)c1ccccc1C2 | > 100 | > 100 | > 100 | > 100 | > 100 | > 100 | > 100 | 76.3 | > 100 | > 100 | > 100 | > 100
